In US20070276025A1, “Indirubin-Type Compounds, Compositions, and Methods for Their Use” (priority 2003, published 2007):
Where two headings read alike, the source gives them in different places.

Legend:
[1] = molecular target: CDK1/cyclin B; test: CDK1/cyclin B kinase assay (histone H1, 15 μM ATP); assay type: biochemical, starfish (Marthasterias glacialis)
[2] = tested on: BP8 (AhR −/−) hepatoma cells; test: Cell viability MTT assay, BP8 cells; assay type: cell-based, mouse; conditions: range of concentrations, 24 and 48 hr
[3] = tested on: BP8 (AhR −/−) hepatoma cells; test: FACS cell cycle analysis, BP8 cells; assay type: cell-based, mouse; conditions: 10 μM indirubins or 100 nM TCDD, 24 hr
Method: Flow cytometry analysis (Coulter EPIX XL2, Beckman, Calif., USA) of cellular DNA content was performed on ethanol-fixed cell suspensions after ribonuclease A III treatment (Sigma) and propidium iodide (Sigma) staining, as previously described (French et al. (1985) Cytometry 6: 47-53). Percentages of cells in G0/G1, S and G2/M phases of cell cycle were then calculated on the basis of DNA distribution histograms provided by the software manufacturer.
Both 5L and BP8 cell lines were treated with 10 μM IO, MeIO, BIO, MeBIO or 100 nM TCDD for 24 hr.

[4] = molecular target: CDK5/p25 (Homo sapiens, UniProt Q00535); test: CDK5/p25 kinase assay (histone H1, 15 μM ATP); assay type: biochemical, mammalian; conditions: read-out: IC50 CDK5/p25
[5] = tested on: BP8 (AhR −/−) hepatoma cells; test: Cell proliferation by direct counting, BP8 cells; assay type: cell-based, mouse; conditions: 20 μM, 24 and 48 hr
Method: (§1) The protocol followed was similar to those previously described in Weiss C, Kolluri S K, Kiefer F and Göttlicher M. (1996). Exp. Cell Res., 226, 154-163, and Kolluri S K, Weiss C, Koff A and Gbttlicher M. (1999). Genes & Dev., 13, 1742-1753. The mouse 5L hepatoma cell line (AhR +/+) and BP8 (an AhR −/− subclone) were kindly provided by Dr. M. Gottlicher (Forschungszentrun Karlsruhe, Institute of Genetics, 76021 Karlsruhe, Germany). Cells were cultured in Dulbecco's modified Eagle medium (DMEM) (Biowhittaker) supplemented with 2 mM L-glutamine (Eurobio), 10% fetal calf serum (FCS), and gentamycin (Gibco BRL) at 37° C. in an atmosphere of 7% CO2. […] Control experiments were carried out using appropriate dilutions of DMSO.
(§2) The effects of IO and MeOO (20 μM) on the proliferation rate of 5L and BP8 cell lines was determined by counting directly the number of live cells after 24 and 48 hr of exposure to the indirubins (FIG. 17).

[6] = tested on: 5L (AhR +/+) hepatoma cells; test: FACS cell cycle analysis, 5L cells; assay type: cell-based, mouse; conditions: 10 μM indirubins or 100 nM TCDD, 24 hr
[7] = tested on: GSK-3α (Tyr276) / GSK-3β (Tyr216); test: Tyrosine phosphorylation of GSK-3 in SH-SY5Y cells (Western blot); assay type: cell-based, human; conditions: 1 μM, 12 hr
From the text: GSK-3α and GSK-3β activity is enhanced by the phosphorylation of a specific tyrosine residue (Tyr276 and Tyr216, respectively) (Hughes et al. (1993) EMBO J. 12: 803-808; Dajani et al. (2003) EMBO J. 22: 494-501). The tyrosine kinase responsible for this phosphorylation in mammals is unknown, but there is some evidence that it indirectly depends on GSK-3 activity (Bhat et al. (2000) Proc. Natl. Acad. Sci. U.S.A. 97: 11074-11079; Shaw et al. (1997) FEBS Lett. 416: 307-311). […] SH-SY5Y cells were exposed to IO, MeIO, BIO and MeBIO for 12 hr and the phosphorylation of Tyr276 (GSK-3α) and Tyr216 (GSK-3β) was estimated by Western blotting with phospho-specific antibodies. […] This was accompanied by an increased level in total GSK-3β, total β-catenin, and dephospho-&catenin.

[8] = molecular target: AhR (Homo sapiens, UniProt P35869)
[9] = tested on: 5L (AhR +/+) hepatoma cells; test: Cell viability MTT assay, 5L cells; assay type: cell-based, mouse; conditions: range of concentrations, 24 and 48 hr
[10] = tested on: p27^KIP1 in 5L (AhR +/+) cells; test: p27KIP1 expression by Western blotting, 5L cells; assay type: cell-based, mouse; conditions: 10 μM indirubins or 0.1 μM TCDD, 24 hr
[11] = tested on: 5L (AhR +/+) hepatoma cells; test: Cell proliferation by direct counting, 5L cells; assay type: cell-based, mouse; conditions: 20 μM, 24 and 48 hr
Method: as §1, §2

[12] = molecular target: GSK-3α/β; test: GSK-3α/β kinase assay (GS-1 peptide, 15 μM ATP); assay type: biochemical, porcine
[13] = molecular target: T1, AhR (Mus musculus, UniProt P30561); conditions: read-out: EC50 AhR (hepatoma cell line); Table 4; EGFP at 24 hours
T1 sequence (P30561 1-848): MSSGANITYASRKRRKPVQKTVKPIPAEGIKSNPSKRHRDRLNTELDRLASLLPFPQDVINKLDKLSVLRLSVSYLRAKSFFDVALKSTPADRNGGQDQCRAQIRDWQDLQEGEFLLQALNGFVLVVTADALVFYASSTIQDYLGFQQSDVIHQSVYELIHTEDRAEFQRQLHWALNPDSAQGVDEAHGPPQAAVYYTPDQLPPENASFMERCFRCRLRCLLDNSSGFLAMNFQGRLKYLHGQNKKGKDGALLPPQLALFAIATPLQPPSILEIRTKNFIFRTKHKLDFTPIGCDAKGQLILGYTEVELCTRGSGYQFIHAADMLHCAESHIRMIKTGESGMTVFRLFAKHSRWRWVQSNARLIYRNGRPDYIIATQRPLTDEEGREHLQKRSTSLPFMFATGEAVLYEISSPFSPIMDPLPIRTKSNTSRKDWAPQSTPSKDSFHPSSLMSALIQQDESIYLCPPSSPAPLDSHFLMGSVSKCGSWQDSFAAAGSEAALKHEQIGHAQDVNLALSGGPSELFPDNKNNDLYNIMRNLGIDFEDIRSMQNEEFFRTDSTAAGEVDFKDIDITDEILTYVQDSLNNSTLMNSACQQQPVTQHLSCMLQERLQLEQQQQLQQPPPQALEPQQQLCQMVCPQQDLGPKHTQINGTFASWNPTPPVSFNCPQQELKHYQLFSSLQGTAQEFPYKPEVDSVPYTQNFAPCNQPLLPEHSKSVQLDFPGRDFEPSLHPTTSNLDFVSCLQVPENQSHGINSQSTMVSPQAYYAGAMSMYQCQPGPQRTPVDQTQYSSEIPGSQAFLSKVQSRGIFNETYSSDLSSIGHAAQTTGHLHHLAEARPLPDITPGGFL

Chain of CDK5/p25 (Q00535 whole entry, species assumed): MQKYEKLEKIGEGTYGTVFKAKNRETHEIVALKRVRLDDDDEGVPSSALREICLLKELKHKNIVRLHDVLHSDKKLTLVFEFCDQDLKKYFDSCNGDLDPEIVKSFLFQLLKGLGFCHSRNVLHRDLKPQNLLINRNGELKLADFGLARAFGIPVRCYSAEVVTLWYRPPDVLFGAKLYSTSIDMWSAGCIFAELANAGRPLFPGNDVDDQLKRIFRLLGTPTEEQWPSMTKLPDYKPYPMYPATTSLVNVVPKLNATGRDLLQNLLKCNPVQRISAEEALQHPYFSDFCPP
Chain of CDK5/p25 (Q15078 99-307 partner limits assumed, species assumed): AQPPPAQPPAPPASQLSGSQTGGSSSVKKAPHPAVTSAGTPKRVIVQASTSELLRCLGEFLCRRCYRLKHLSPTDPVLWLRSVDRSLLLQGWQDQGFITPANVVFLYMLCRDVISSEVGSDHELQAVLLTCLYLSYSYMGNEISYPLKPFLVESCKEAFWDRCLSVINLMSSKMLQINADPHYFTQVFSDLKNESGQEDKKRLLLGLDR
Chain of AhR (Homo sapiens, UniProt P35869) (P35869 11-848): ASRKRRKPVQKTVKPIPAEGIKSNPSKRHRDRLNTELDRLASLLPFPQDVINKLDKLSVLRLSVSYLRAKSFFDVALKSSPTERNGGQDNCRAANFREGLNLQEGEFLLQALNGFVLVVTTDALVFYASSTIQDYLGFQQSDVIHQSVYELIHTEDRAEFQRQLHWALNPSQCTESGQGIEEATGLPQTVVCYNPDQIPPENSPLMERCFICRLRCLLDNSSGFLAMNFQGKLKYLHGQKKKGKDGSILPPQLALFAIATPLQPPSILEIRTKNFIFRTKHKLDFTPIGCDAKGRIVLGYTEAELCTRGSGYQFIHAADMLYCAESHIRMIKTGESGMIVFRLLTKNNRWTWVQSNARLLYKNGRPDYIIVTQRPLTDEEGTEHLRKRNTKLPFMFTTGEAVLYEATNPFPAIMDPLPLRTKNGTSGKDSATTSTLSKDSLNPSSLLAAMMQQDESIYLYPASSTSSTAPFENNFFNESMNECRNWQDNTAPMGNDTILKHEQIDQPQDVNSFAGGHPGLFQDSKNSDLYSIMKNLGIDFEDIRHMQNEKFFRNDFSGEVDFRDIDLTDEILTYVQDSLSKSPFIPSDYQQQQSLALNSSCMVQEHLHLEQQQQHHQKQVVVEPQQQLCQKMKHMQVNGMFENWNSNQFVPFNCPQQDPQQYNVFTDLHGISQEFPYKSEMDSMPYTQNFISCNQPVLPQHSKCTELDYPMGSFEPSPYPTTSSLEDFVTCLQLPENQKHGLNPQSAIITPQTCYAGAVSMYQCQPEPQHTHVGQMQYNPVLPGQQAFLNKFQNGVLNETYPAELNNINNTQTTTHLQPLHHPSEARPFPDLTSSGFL
Chain of AhR (Homo sapiens, UniProt P35869) (P27540 whole entry partner): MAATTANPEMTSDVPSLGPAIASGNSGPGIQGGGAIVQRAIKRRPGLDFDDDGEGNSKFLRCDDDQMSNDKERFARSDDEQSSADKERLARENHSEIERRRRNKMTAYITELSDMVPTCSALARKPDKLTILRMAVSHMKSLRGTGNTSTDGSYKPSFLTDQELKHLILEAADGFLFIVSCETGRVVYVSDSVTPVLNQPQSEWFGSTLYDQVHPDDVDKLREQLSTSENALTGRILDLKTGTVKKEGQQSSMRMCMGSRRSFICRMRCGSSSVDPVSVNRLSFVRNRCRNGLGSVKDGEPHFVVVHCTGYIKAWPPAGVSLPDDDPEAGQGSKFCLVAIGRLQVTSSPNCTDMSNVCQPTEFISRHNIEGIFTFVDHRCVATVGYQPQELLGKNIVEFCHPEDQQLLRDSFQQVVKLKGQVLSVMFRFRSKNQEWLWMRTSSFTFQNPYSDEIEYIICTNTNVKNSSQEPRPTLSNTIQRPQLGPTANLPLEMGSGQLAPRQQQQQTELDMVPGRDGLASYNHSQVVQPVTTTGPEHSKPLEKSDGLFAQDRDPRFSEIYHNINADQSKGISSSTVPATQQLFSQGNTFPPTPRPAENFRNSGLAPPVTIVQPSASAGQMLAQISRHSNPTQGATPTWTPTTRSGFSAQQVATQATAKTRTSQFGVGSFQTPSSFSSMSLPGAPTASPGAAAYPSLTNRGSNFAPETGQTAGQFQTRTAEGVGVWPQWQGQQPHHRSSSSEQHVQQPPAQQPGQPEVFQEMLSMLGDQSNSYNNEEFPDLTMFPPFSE

SMILES: CN1C(=O)C(=C2Nc3ccccc3C2=NO)c2ccccc21 [13d, 1-Methylindirubin-3′-oxime]
- IC50 ([1]; Table 1, read-out: IC50 CDK1/cyclin B): 73 µM
- IC50 ([1]; Table 4, read-out: IC50 CDK1/cycin B): 73 µM
- IC50 ([1]; Table 5, read-out: IC50 CDK1/cyclin B): 73 µM
- survival of BP8 cells (MTT) [2]: apparently not affected
- accumulation of BP8 cells in G1 phase [3]: but not of AhR −/− cells (BP8)
- IC50 ([4]; Table 1): > 100 µM
- IC50 ([4]; Table 5): > 100 µM
- proliferation rate of BP8 cells [5]: did not effect the proliferation
- accumulation of 5L cells in G1 phase [6]: very striking accumulation
- level of tyrosine phosphorylation of both GSK-3 isoforms [7]: None of these changes were observed
- EC50 [8]: 0.008 µM
- survival of 5L cells (MTT) [9]: apparently not affected
- p27^KIP1 expression in 5L cells [10]: very effective p27^KIP1 inducers
- proliferation rate of 5L cells [11]: reduced the rate of proliferation only in 5L cells
- IC50 ([12]; Table 1, read-out: IC50 GSK-3 α/β): > 100 µM
- IC50 ([12]; Table 4, read-out: IC50 GSK-3): > 100 µM
- IC50 ([12]; Table 5, read-out: IC50 GSK-3α/β): > 100 µM
- EC50 [13]: 0.129 µM
